Assay results reported in ChEMBL document CHEMBL5338738, “Discovery of Novel Sesquiterpene Lactone Derivatives as Potent PKM2 Activators for the Treatment of Ulcerative Colitis” (J Med Chem, 2023).
Calls of active or inactive are those of the source. No cut-off for these calls is given here.

Columns and labels:
T-cell = test: Immunomodulatory activity in C57BL/6 mouse mesenteric lymph node T cells assessed as inhibition of concanavalin A stimulated T-cell proliferation incubated for 68 hrs by CCK-8 assay; format: functional, cell-based; conditions: C57BL/6, T-cell
Pyruvate kinase PKM [1] = molecular target: T1, Pyruvate kinase PKM (Homo sapiens, UniProt P14618); test: Activation of PKM2 (unknown origin) at 3 uM incubated for 30 mins relative to control
Target sequence in this assay (P14618 2-531 limits assumed): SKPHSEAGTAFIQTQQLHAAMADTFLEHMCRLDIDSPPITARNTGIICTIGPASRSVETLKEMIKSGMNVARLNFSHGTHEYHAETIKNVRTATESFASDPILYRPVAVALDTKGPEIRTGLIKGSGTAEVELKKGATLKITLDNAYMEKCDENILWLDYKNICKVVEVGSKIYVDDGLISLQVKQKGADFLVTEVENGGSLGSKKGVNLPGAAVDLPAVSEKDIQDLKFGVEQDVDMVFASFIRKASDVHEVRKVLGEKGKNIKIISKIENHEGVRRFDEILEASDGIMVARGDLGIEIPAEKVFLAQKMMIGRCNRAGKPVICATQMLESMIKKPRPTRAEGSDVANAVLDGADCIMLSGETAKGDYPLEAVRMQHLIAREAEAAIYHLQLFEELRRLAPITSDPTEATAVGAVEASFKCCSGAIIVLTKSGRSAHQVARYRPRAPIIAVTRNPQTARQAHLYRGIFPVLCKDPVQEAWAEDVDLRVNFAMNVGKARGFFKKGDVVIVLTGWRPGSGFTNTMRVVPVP

Pyruvate kinase PKM [2] = molecular target: T1, Pyruvate kinase PKM; test: Activation of PKM2 (unknown origin) incubated for 30 mins
Target sequence in this assay (P14618 whole entry): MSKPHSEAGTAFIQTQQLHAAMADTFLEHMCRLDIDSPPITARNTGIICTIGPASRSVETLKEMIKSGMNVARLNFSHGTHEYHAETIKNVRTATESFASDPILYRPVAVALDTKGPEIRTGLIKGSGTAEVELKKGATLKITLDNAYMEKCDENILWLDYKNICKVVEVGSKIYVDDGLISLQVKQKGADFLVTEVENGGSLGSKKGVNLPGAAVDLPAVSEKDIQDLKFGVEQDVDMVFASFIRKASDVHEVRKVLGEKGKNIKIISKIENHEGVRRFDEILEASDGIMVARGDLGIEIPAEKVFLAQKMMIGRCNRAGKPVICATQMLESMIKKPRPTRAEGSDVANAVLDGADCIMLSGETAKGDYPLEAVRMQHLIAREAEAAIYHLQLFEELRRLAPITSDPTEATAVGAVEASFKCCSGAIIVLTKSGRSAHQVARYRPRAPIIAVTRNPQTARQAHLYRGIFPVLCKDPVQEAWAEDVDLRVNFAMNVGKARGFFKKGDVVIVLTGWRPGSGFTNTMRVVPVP

SMILES | IC50 (T-cell) [nM] | Activity (Pyruvate kinase PKM [1]) | EC50 (Pyruvate kinase PKM [2]) [nM]
C=C1C(=O)O[C@@H]2[C@H]3C(C)=CC[C@@H](O)[C@]3(C)CC[C@@H]12 [SANTAMARIN] | 5560 | inactive | –
C=C1C(=O)O[C@@H]2/C=C(\C)CC/C=C(/COC(=O)[C@@H](N)C(C)C)CC[C@@H]12 | 880 | – | –
C=C1C(=O)O[C@@H]2/C=C(\C)CCC[C@H](C)CC[C@@H]12 | 2890 | – | –
C=C1C(=O)O[C@@H]2/C=C(\C)CC/C=C(/C(=O)O)CC[C@@H]12 | 10200 | inactive | –
C=C1C(=O)O[C@H]2[C@H]1CC[C@]1(C)O[C@@H]1CC[C@@]1(C)O[C@@H]21 | 10600 | inactive | –
C=C1C(=O)O[C@@H]2/C=C(\C)CC/C=C(/C=O)CC[C@@H]12 | 25900 | inactive | –
C=C1C(=O)O[C@@H]2/C=C(\C)CC[C@H]3O[C@@]3(C)CC[C@@H]12 | 2630 | – | –
C=C1CC[C@@H](O)[C@]2(C)CC[C@H]3C(=C)C(=O)O[C@@H]3[C@@H]12 [REYNOSIN] | 6200 | inactive | –
C/C1=C\[C@H]2OC(=O)[C@@H](C)[C@@H]2CC/C(C)=C/CC1 [DIHYDRO COSTUNOLIDE] | 15000 | inactive | –
C=C1C(=O)O[C@@H]2/C=C(\C)CC/C=C(\C)CC[C@@H]12 [COSTUNOLIDE] | 2570 | – | 1510
C=C1C(=O)O[C@@H]2/C=C(\C)CC[C@H]3C(F)(F)[C@@]3(C)CC[C@@H]12 | 1230 | – | –
C/C1=C\[C@H]2OC(=O)/C(=C\c3ccccc3)[C@@H]2CC/C(C)=C/CC1 | 16100 | inactive | –
C=C1C(=O)O[C@@H]2/C=C(\C)CC/C=C(/COC(=O)[C@@H](NC(=O)[C@@H](N)[C@@H](C)CC)C(C)C)CC[C@@H]12 | 1010 | – | –
C=C1C(=O)O[C@@H]2C3=C(C)CC[C@@H](O)[C@]3(C)CC[C@@H]12 | 6170 | inactive | –
C=C1C(=O)O[C@@H]2/C=C(\C)CC/C=C(/CBr)CC[C@@H]12 | 11800 | inactive | –
C=C1C(=O)O[C@@H]2/C=C(\C)CC/C=C(/C(=O)OC)CC[C@@H]12 | 850 | – | –
C=C1C(=O)O[C@@H]2C[C@@H](C)CC[C@H]3O[C@@]3(C)CC[C@@H]12 | 1970 | – | –
C=C1C(=O)O[C@@H]2/C=C(\C)CC/C=C(/CCl)CC[C@@H]12 | 15200 | inactive | –
C=C1C(=O)O[C@H]2[C@H]1CC[C@@H](C)CCC[C@@]1(C)O[C@@H]21 | 1420 | – | –
C=C1C(=O)O[C@@H]2/C=C(\C)CC/C=C(/C(=O)OCC)CC[C@@H]12 | 1030 | – | –
C=C1C(=O)O[C@@H]2/C=C(\C)CC/C=C(/CF)CC[C@@H]12 | 1520 | – | –
C=C1C(=O)O[C@@H]2/C=C(\C)CC/C=C(/C(F)F)CC[C@@H]12 | 1210 | – | –
C=C1C(=O)O[C@@H]2/C=C(\C)CC/C=C(/CO)CC[C@@H]12 | 720 | – | –
